Assay results published in PubChem BioAssay (NCI).
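Test compounds were applied to cells in 96-well plates for 48 hours at 5 doses. GI50: concentration for 50% inhibition of growth. TGI: total growth inhibition.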

Columns and labels:
Test in all cases: NCI anticancer screen, dose series, 48 h
OVCAR-4 ovarian = test system: OVCAR-4 ovarian
PC-3 prostate = test system: PC-3 prostate
SK-MEL-5 melanoma = test system: SK-MEL-5 melanoma
MCF7 breast = test system: MCF7 breast
MDA-MB-468 breast = test system: MDA-MB-468 breast
UO-31 renal = test system: UO-31 renal
HCT-15 colon = test system: HCT-15 colon
HCC-2998 colon = test system: HCC-2998 colon
SW-620 colon = test system: SW-620 colon
IGROV1 ovarian = test system: IGROV1 ovarian
DU-145 prostate = test system: DU-145 prostate
OVCAR-5 ovarian = test system: OVCAR-5 ovarian
SN12C renal = test system: SN12C renal
786-0 renal = test system: 786-0 renal
MALME-3M melanoma = test system: MALME-3M melanoma
TK-10 renal = test system: TK-10 renal
SF-295 CNS = test system: SF-295 CNS
OVCAR-3 ovarian = test system: OVCAR-3 ovarian
BT-549 breast = test system: BT-549 breast
OVCAR-8 ovarian = test system: OVCAR-8 ovarian
HOP-62 NSCLC = test system: HOP-62 NSCLC
HOP-92 NSCLC = test system: HOP-92 NSCLC
LOX IMVI melanoma = test system: LOX IMVI melanoma
EKVX NSCLC = test system: EKVX NSCLC
SNB-19 CNS = test system: SNB-19 CNS
UACC-62 melanoma = test system: UACC-62 melanoma
MDA-MB-231 breast = test system: MDA-MB-231 breast
ACHN renal = test system: ACHN renal
SK-OV-3 ovarian = test system: SK-OV-3 ovarian
UACC-257 melanoma = test system: UACC-257 melanoma
A549 NSCLC = test system: A549 NSCLC
HL-60(TB) leukemia = test system: HL-60(TB) leukemia
M14 melanoma = test system: M14 melanoma
CCRF-CEM leukemia = test system: CCRF-CEM leukemia
CAKI-1 renal = test system: CAKI-1 renal
NCI-H226 lung = test system: NCI-H226 lung
NCI-H522 lung = test system: NCI-H522 lung
T-47D breast = test system: T-47D breast
SNB-75 CNS = test system: SNB-75 CNS
U251 CNS = test system: U251 CNS
K-562 leukemia = test system: K-562 leukemia
MDA-MB-435 = test system: MDA-MB-435
NCI-H23 lung = test system: NCI-H23 lung
HS 578T breast = test system: HS 578T breast
A498 renal = test system: A498 renal
HCT-116 colon = test system: HCT-116 colon
NCI-H460 lung = test system: NCI-H460 lung
SF-539 CNS = test system: SF-539 CNS
MOLT-4 leukemia = test system: MOLT-4 leukemia
NCI/ADR-RES ovarian = test system: NCI/ADR-RES ovarian
HT29 colon = test system: HT29 colon
RPMI-8226 leukemia = test system: RPMI-8226 leukemia
RXF 393 renal = test system: RXF 393 renal
SK-MEL-2 melanoma = test system: SK-MEL-2 melanoma
SR leukemia = test system: SR leukemia
SF-268 CNS = test system: SF-268 CNS
KM12 colon = test system: KM12 colon
COLO 205 colon = test system: COLO 205 colon
SK-MEL-28 melanoma = test system: SK-MEL-28 melanoma

## O=C(Nc1ccc(OCC(=O)c2ccc(Cl)cc2)cc1)Nc1ccc(Cl)c(C(F)(F)F)c1
OVCAR-4 ovarian
  GI50: 5.35 µM
  TGI: 46.1 µM
PC-3 prostate
  GI50: 2.9 µM
  TGI: > 100 µM
SK-MEL-5 melanoma
  GI50: 6.19 µM
  TGI: > 100 µM
MCF7 breast
  GI50: 5.15 µM
  TGI: > 100 µM
MDA-MB-468 breast
  GI50: 2.97 µM
  TGI: > 100 µM
UO-31 renal
  GI50: 3.44 µM
  TGI: > 100 µM
HCT-15 colon
  GI50: 3.17 µM
  TGI: > 100 µM
HCC-2998 colon
  GI50: 3.4 µM
  TGI: > 100 µM
SW-620 colon
  GI50: 4.67 µM
  TGI: > 100 µM
IGROV1 ovarian
  GI50: 5.85 µM
  TGI: > 100 µM
DU-145 prostate
  GI50: 7.97 µM
  TGI: > 100 µM
OVCAR-5 ovarian
  GI50: 7.49 µM
  TGI: > 100 µM
SN12C renal
  GI50: 6 µM
  TGI: > 100 µM
786-0 renal
  GI50: 5.8 µM
  TGI: 26.1 µM
MALME-3M melanoma
  GI50: 3.61 µM
  TGI: > 100 µM
TK-10 renal
  GI50: 15.9 µM
  TGI: > 100 µM
SF-295 CNS
  GI50: 3.8 µM
  TGI: 32.4 µM
OVCAR-3 ovarian
  GI50: 4.12 µM
  TGI: > 100 µM
BT-549 breast
  GI50: 11.5 µM
  TGI: 70.3 µM
OVCAR-8 ovarian
  GI50: 7.17 µM
  TGI: > 100 µM
HOP-62 NSCLC
  GI50: 10.5 µM
  TGI: 75.8 µM
HOP-92 NSCLC
  GI50: 4.07 µM
  TGI: 42.1 µM
LOX IMVI melanoma
  GI50: 4.41 µM
  TGI: 22.2 µM
EKVX NSCLC
  GI50: 3.53 µM
  TGI: > 100 µM
SNB-19 CNS
  GI50: 4.62 µM
  TGI: 30.1 µM
UACC-62 melanoma
  GI50: 3.28 µM
  TGI: > 100 µM
MDA-MB-231 breast
  GI50: 5.93 µM
  TGI: 32 µM
ACHN renal
  GI50: 3.75 µM
  TGI: > 100 µM
SK-OV-3 ovarian
  GI50: 14.2 µM
  TGI: > 100 µM
UACC-257 melanoma
  GI50: 3.55 µM
  TGI: > 100 µM
A549 NSCLC
  GI50: 3.69 µM
  TGI: > 100 µM
HL-60(TB) leukemia
  GI50: 4.43 µM
  TGI: > 100 µM
M14 melanoma
  GI50: 4.4 µM
  TGI: > 100 µM
CCRF-CEM leukemia
  GI50: 3.95 µM
  TGI: > 100 µM
CAKI-1 renal
  GI50: 4.1 µM
  TGI: > 100 µM
NCI-H226 lung
  GI50: 3.16 µM
  TGI: > 100 µM
NCI-H522 lung
  GI50: 3.68 µM
  TGI: > 100 µM
T-47D breast
  GI50: 3.25 µM
  TGI: > 100 µM
SNB-75 CNS
  GI50: 2.53 µM
  TGI: 45.6 µM
U251 CNS
  GI50: 5.48 µM
  TGI: 25.8 µM
K-562 leukemia
  GI50: 10.4 µM
  TGI: > 100 µM
MDA-MB-435
  GI50: 6.7 µM
  TGI: > 100 µM
NCI-H23 lung
  GI50: 5.83 µM
  TGI: 31.1 µM
HS 578T breast
  GI50: 4.44 µM
  TGI: > 100 µM
A498 renal
  GI50: 3 µM
  TGI: 30 µM
HCT-116 colon
  GI50: 4.66 µM
  TGI: > 100 µM
NCI-H460 lung
  GI50: 3.46 µM
  TGI: > 100 µM
SF-539 CNS
  GI50: 7.74 µM
  TGI: 24.8 µM
MOLT-4 leukemia
  GI50: 3.6 µM
  TGI: > 100 µM
NCI/ADR-RES ovarian
  GI50: 4.06 µM
  TGI: > 100 µM
HT29 colon
  GI50: 4.75 µM
  TGI: > 100 µM
RPMI-8226 leukemia
  GI50: 3.21 µM
  TGI: > 100 µM
RXF 393 renal
  GI50: 3.13 µM
  TGI: 9.28 µM
SK-MEL-2 melanoma
  GI50: 2.92 µM
  TGI: > 100 µM
SR leukemia
  GI50: 13.7 µM
  TGI: > 100 µM

## COc1cc(/C=C/C(=O)c2ccc(S(=O)(=O)NCCNc3nc(N(C)C)nc(N4CCOCC4)n3)cc2)cc(OC)c1OC
OVCAR-4 ovarian
  GI50: 2.21 µM
  TGI: 6.35 µM
PC-3 prostate
  GI50: 3.76 µM
  TGI: 13.6 µM
SF-268 CNS
  GI50: 3.16 µM
  TGI: 12.5 µM
SK-MEL-5 melanoma
  GI50: 7.9 µM
  TGI: 20.7 µM
MCF7 breast
  GI50: 1.64 µM
  TGI: 3.98 µM
MDA-MB-468 breast
  GI50: 1.69 µM
  TGI: 3.36 µM
UO-31 renal
  GI50: 1.57 µM
  TGI: 3.15 µM
HCT-15 colon
  GI50: 1.82 µM
  TGI: 3.91 µM
HCC-2998 colon
  GI50: 1.8 µM
  TGI: 3.26 µM
SW-620 colon
  GI50: 1.9 µM
  TGI: 3.75 µM
IGROV1 ovarian
  GI50: 2.6 µM
  TGI: 7.54 µM
DU-145 prostate
  GI50: 3.31 µM
  TGI: 11.6 µM
OVCAR-5 ovarian
  GI50: 2.83 µM
  TGI: 7.57 µM
SN12C renal
  GI50: 2.72 µM
  TGI: 8.71 µM
786-0 renal
  GI50: 1.89 µM
  TGI: 3.68 µM
MALME-3M melanoma
  GI50: 1.97 µM
  TGI: 4.31 µM
TK-10 renal
  GI50: 13.1 µM
  TGI: 25.9 µM
SF-295 CNS
  GI50: 3.04 µM
  TGI: 11.9 µM
OVCAR-3 ovarian
  GI50: 2.02 µM
  TGI: 4.23 µM
BT-549 breast
  GI50: 2.01 µM
  TGI: 3.73 µM
OVCAR-8 ovarian
  GI50: 2.3 µM
  TGI: 6.07 µM
KM12 colon
  GI50: 1.7 µM
  TGI: 3.33 µM
HOP-62 NSCLC
  GI50: 2.66 µM
  TGI: 8.72 µM
HOP-92 NSCLC
  GI50: 7.27 µM
  TGI: 25.7 µM
LOX IMVI melanoma
  GI50: 1.64 µM
  TGI: 3.07 µM
EKVX NSCLC
  GI50: 3.74 µM
  TGI: 19.8 µM
SNB-19 CNS
  GI50: 4.28 µM
  TGI: 16.2 µM
UACC-62 melanoma
  GI50: 2.14 µM
  TGI: 5.54 µM
MDA-MB-231 breast
  GI50: 2.9 µM
  TGI: 7.55 µM
ACHN renal
  GI50: 1.78 µM
  TGI: 3.46 µM
SK-OV-3 ovarian
  GI50: 14.3 µM
  TGI: 27.4 µM
UACC-257 melanoma
  GI50: 5.86 µM
  TGI: 18.5 µM
A549 NSCLC
  GI50: 3.55 µM
  TGI: 14 µM
HL-60(TB) leukemia
  GI50: 1.97 µM
  TGI: 7.34 µM
M14 melanoma
  GI50: 2.18 µM
  TGI: 6.34 µM
COLO 205 colon
  GI50: 2.14 µM
  TGI: 5.03 µM
CCRF-CEM leukemia
  GI50: 2.07 µM
  TGI: 7.25 µM
CAKI-1 renal
  GI50: 10.6 µM
  TGI: 23.3 µM
NCI-H226 lung
  GI50: 11.4 µM
  TGI: 28.8 µM
NCI-H522 lung
  GI50: 1.66 µM
  TGI: 3.25 µM
T-47D breast
  GI50: 5.74 µM
  TGI: 23.3 µM
SNB-75 CNS
  GI50: 1.56 µM
  TGI: 15.5 µM
U251 CNS
  GI50: 1.54 µM
  TGI: 2.92 µM
K-562 leukemia
  GI50: 1.46 µM
  TGI: > 100 µM
MDA-MB-435
  GI50: 1.9 µM
  TGI: 4.02 µM
NCI-H23 lung
  GI50: 3.09 µM
  TGI: 12.3 µM
SK-MEL-28 melanoma
  GI50: 2.12 µM
  TGI: 4.8 µM
A498 renal
  GI50: 14.2 µM
  TGI: 27.4 µM
HCT-116 colon
  GI50: 1.56 µM
  TGI: 3.04 µM
NCI-H460 lung
  GI50: 3.17 µM
  TGI: 10.4 µM
SF-539 CNS
  GI50: 1.81 µM
  TGI: 3.37 µM
MOLT-4 leukemia
  GI50: 2.23 µM
  TGI: 9.28 µM
HT29 colon
  GI50: 1.72 µM
  TGI: 3.19 µM
RPMI-8226 leukemia
  GI50: 1.39 µM
  TGI: 4.66 µM
RXF 393 renal
  GI50: 1.22 µM
  TGI: 3.24 µM
SK-MEL-2 melanoma
  GI50: 10.7 µM
  TGI: 22.9 µM
SR leukemia
  GI50: 1.88 µM
  TGI: 7.84 µM
